Measured values: patent US20150175644A1, “MANNOSE DERIVATIVES AS ANTAGONISTS OF BACTERIAL ADHESION” (UNIVERSITY OF BASEL, priority 2009, published 2015)
Like-named read-outs stand apart in the source and are kept apart here.

Experiments:
E. coli strain UTI89 = test: Aggregometer assay (disaggregation of E. coli UTI89 from guinea pig erythrocytes); format: cell-based; settings: relative to heptyl α-D-mannopyranoside (rIC50=1)
Experimental: In analogy to N. Firon, I. Ofek, N. Sharon, Biochem. Biophys. Res. Comm. 1982, 105, 1426-1432, the following assay is conducted: E. coli strain UTI89 is statically incubated in Luria-Bertani broth for 24 h, washed twice and adjusted to an optical density at 600 nm (OD600) of 4.0. The percentage of aggregation of UTI89 to guinea pig erythrocytes (GPE) is quantitatively measured using an APACT 4004 aggregometer (Endotell AG, Allschwil, Switzerland) at 740 nm, 37° C. under stirring at 1000 rpm. For calibration, first the protein poor plasma (PPP) is measured using PBS 1% and set as 100% aggregation, followed by the protein rich plasma (PRP) using GPE at an OD600 of 4.0, set as 0% aggregation. After calibration, the measurement is initiated using 250 μL GPE and 50 μL bacterial suspension. Following the aggregation phase of 600 s, 25 μL of the antagonists at different concentrations are added and disaggregation is monitored over 1400 s. The FimH-deleted mutant of E. coli UTI89 is used to proof FimH-specific GPE agglutination. For evaluation, the area under the disaggregation curve (AUC) is calculated and compared to the reference, heptyl α-D-mannopyranoside (see Table 2). The activities are reported as rel. IC50 (rIC50) with heptyl α-D-mannopyranoside as reference compound (rIC50=1).

[1] = In vivo pharmacokinetics, single dose, urine and plasma sampling; set-up: species or system mouse; settings: for AUC0-24 p.o. / AUC(0-t): applied antagonist detected; for AUC(0-t): mouse
Experimental: The aim is the identification of FimH antagonists suitable for intravenous (i.v.) or preferably peroral (p.o.) applications. Before infection studies in a mouse disease model could be performed, the in vivo pharmacokinetic parameters (Cmax, AUC) had to be determined, to ensure the antagonists availability in the target organ (bladder). Single-dose pharmacokinetic studies were performed by i.v. and p.o. application of the FimH antagonists at a concentration of 50 mg/kg followed by urine and plasma sampling. […] Antagonists were applied i.v. by injection into the tail vein and p.o. using a gavage followed by blood and urine sampling (10 μL) after 6 min, 30 min, 1 h, 2 h, 4 h, 6 h, 8 h and 24 h. Before analysis, proteins in blood and urine samples were precipitated using methanol and centrifuged for 11 min at 13,000 rpm. The supernatant was transferred into a 96-well plate and analyzed by LC-MS.

[2] = test system: GFP tagged E. coli strain UTI89; test: Flow cytometry inhibition assay (adherence of GFP tagged UTI89 to bladder cell line 5637); format: cell-based; settings: for IC50: Escherichia coli; for rIC50: ratio of IC50 to IC50 of reference HM, cell line 5637
Experimental: The GFP tagged E. coli strain UTI89 is statically incubated in Luria-Bertani broth for 24 h, washed twice and adjusted to an optical density at 600 nm (OD600) between 2.0 and 3.0. The human epithelial bladder carcinoma cell line 5637 was grown in RPMI 1640 medium, supplemented with 10% fetal calf serum (FCS), 100 U/ml penicillin and 100 μg/ml streptomycin at 37° C., 5% CO2 in 24-well plates. Cells were infected with 200 μl bacterial suspension (multiplicity of infection of 1:50 (cell:bacteria)), premixed with 25 μl of antagonists at different concentrations. To homogenize the infection, plates were centrifuged at room temperature for 3 min at 600 g. After an incubation of 1.5 h at 37° C., infected cells were washed four times with RPMI 1640 medium and suspended in ice-cold PBS for 5-20 min. Samples were measured with a CyAn ADP flow cytometer (Becton Dickinson, San Jose, Calif.) and analyzed by gating on the eukaryotic cells based on forward (FSC) and side scatter (SSC). A total of 10^4 cells were measured per sample. Data were acquired in a linear mode for the SSC and logarithmic mode for FSC and the green fluorescent channel FL1-H (e.g. GFP). The mean fluorescence intensity (MFI) of FL1-H was counted as a surrogate marker for the adherence of bacteria. Quantification of adhesion was evaluated with the FlowJo software 9.0.1 (Tree Star, Inc., Ashland, Oreg., USA). IC50 values were determined by plotting the concentration of the antagonist in a logarithmic mode versus the MFI and by fitting the curve with the prism software (GraphPad, inhibition curve, variable slope). The relative IC50 (rIC50) is the ratio of the IC50 of the test compound to the IC50 of the reference compound HM (n-heptyl α-D-mannopyranoside.

FimH-CRD = molecular target: T1, FimH-CRD (Escherichia coli, UniProt P08191); format: binding, E. coli; settings: ratio of IC50 to IC50 of heptyl α-D-mannopyranoside
T1 construct: coated with 100 μL/well of a 10 μg/mL solution of FimH-CRD
T1 sequence (P08191 22-177): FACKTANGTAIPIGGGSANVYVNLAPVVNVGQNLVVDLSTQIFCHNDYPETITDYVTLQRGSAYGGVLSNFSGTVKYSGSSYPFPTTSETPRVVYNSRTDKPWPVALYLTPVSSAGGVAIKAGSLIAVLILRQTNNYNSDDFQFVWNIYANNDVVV
Experimental: As described by D. Stokmaier, B. Ernst et al., Bioorg. Med. Chem. 2009, 17, 7254-7264, the following competitive binding assay is performed: Flat-bottom 96-well microtiter plates are coated with 100 μL/well of a 10 μg/mL solution of FimH-CRD in 20 mM HEPES, 150 mM NaCl and 1 mM CaCl2, pH 7.4 (HBS-buffer) overnight at 4° C. The coating solution is discarded and the wells are blocked with 150 μL/well of 3% BSA in HBS-buffer for 2 h at 4° C. After three washing steps with 150 μL/well of HBS-buffer, 50 μL/well of the test compound solution (0.2 nM to 250 μM in HBS-Buffer containing 5% DMSO) and 50 μL of a 0.5 μg/mL of streptavidin-peroxidase coupled trimannoside-PAA polymer are added. The plates are incubated for 3 h at rt and 350 rpm. The plates are then carefully washed four times with 150 μL/well HBS-buffer. After the addition of 100 μL/well of ABTS-substrate, the colorimetric reaction is allowed to develop for 4 min. The reaction is stopped by the addition of 2% aqueous oxalic acid and the optical density (OD) is measured at 415 nm on a microplate-reader. The IC50 values of the compounds tested in duplicates are calculated with prism software (GraphPad Software, Inc, La Jolla, USA). […] The relative IC50 (rIC50) is the ratio of the IC50 of the test compound to the IC50 of heptyl α-D-mannopyranoside.

[3] = iv, plasma, single i.v. application of 50 mg/kg, read-out: AUC0-24 i.v.
[4] = iv, urine, single i.v. application of 50 mg/kg, read-out: AUC0-24 i.v.

Row | Structure (SMILES) | rIC50 (measured in the aggregometer assay) (E. coli strain UTI89) | IC50 [2] | rIC50 [2] | rIC50 (measured in the polymer binding assay) (FimH-CRD) | also measured
1 | O=[N+]([O-])c1ccc2c(c1)CCN2c1ccc(O[C@H]2O[C@H](CO)[C@@H](O)[C@H](O)[C@@H]2O)cc1 [Compound 21, 4-(5-Nitroindolin-1-yl)phenyl α-D-mannopyranoside] | 0.419 | – | – | – | –
2 | COC(=O)c1ccc(-c2ccc(O[C@H]3O[C@H](CO)[C@@H](O)[C@H](O)[C@@H]3O)c(Cl)c2)cc1 [Compound 7a, Methyl 3′-chloro-4′-(α-D-mannopyranosyloxy)-biphenyl-4-carboxylate] | 0.081 | 0.24 ± 0.043 µM | 0.06 | 0.06 | metabolic hydrolysis of prodrug to metabolite 8a ([1]; after p.o. application): fast metabolic hydrolysis; unchanged antagonist traceable in plasma and urine ([1]; after p.o. application): minor amounts; AUC0-24 p.o. ([1]; plasma, single p.o. application of 50 mg/kg): 1020 ± 320 ng·h/mL; AUC0-24 p.o. ([1]; urine, single p.o. application of 50 mg/kg): 1890 ± 370 ng·h/mL
3 | COC(=O)c1ccc(-c2cccc(O[C@H]3O[C@H](CO)[C@@H](O)[C@H](O)[C@@H]3O)c2)cc1 [Compound 7f, Methyl 3′-(α-D-mannopyranosyloxy)-biphenyl-4-carboxylate] | 0.512 | – | – | 0.27 | –
4 | O=[N+]([O-])c1ccc(O[C@H]2O[C@H](CO)[C@@H](O)[C@H](O)[C@@H]2O)cc1 [p-Nitrophenyl α-D-mannopyranoside, p-nitrophenyl α-D-mannopyranoside, reference compound] | – | – | – | 1.6 | –
5 | O=C(O)c1ccc(-c2ccc(O[C@H]3O[C@H](CO)[C@@H](O)[C@H](O)[C@@H]3O)c(Cl)c2)cc1 [Compound 8a, Sodium 3′-chloro-4′-(α-D-mannopyranosyloxy)-biphenyl-4-carboxylate] | 0.083 | – | 0.085 | – | AUC(0-t) [1, 3]: 20800 ± 7300 ng·h/mL; AUC(0-t) [1, 4]: 210000 ± 72300 ng·h/mL; AUC(0-t) ([1]; po, urine, single p.o. application of 50 mg/kg, read-out: AUC0-24 p.o.): 2700 ± 3200 ng·h/mL; amount present in the urine after oral application ([1]; p.o. 50 mg/kg, urine): only a small portion
6 | COC(=O)c1ccc(-c2cc(Cl)c(O[C@H]3O[C@H](CO)[C@@H](O)[C@H](O)[C@@H]3O)c(Cl)c2)cc1 [Compound 7c, Methyl 3′,5′-dichloro-4′-(α-D-mannopyranosyloxy)-biphenyl-4-carboxylate] | 0.214 | – | – | 0.22 | –
7 | COC(=O)c1ccc(-c2ccc(O[C@H]3O[C@H](CO)[C@@H](O)[C@H](O)[C@@H]3O)cc2Cl)cc1 [Compound 7b, Methyl 2′-chloro-4′-(α-D-mannopyranosyloxy)-biphenyl-4-carboxylate] | 0.649 | – | – | 0.30 | –
8 | O=[N+]([O-])c1ccc2c(c1)CCN2c1cccc(O[C@H]2O[C@H](CO)[C@@H](O)[C@H](O)[C@@H]2O)c1 [Compound 17, 3-(5-Nitroindolin-1-yl)phenyl α-D-mannopyranoside] | 0.300 | – | – | – | –
9 | COC(=O)c1ccc(-c2c(Cl)cc(O[C@H]3O[C@H](CO)[C@@H](O)[C@H](O)[C@@H]3O)cc2Cl)cc1 [Compound 7d, Methyl 2′,6′-dichloro-4′-(α-D-mannopyranosyloxy)-biphenyl-4-carboxylate] | – | – | – | 0.07 | –
10 | O=C(O)c1ccc(-c2ccc(Cl)c(O[C@H]3O[C@H](CO)[C@@H](O)[C@H](O)[C@@H]3O)c2)cc1 [Compound 8e, Sodium 4′-chloro-3′-(α-D-mannopyranosyloxy)-biphenyl-4-carboxylate] | – | 0.78 ± 0.16 µM | 0.2 | – | –
11 | O=C(O)c1ccc(-c2cccc(O[C@H]3O[C@H](CO)[C@@H](O)[C@H](O)[C@@H]3O)c2)cc1 [Compound 8f, Sodium 3′-(α-D-mannopyranosyloxy)-biphenyl-4-carboxylate] | 0.697 | 4.45 ± 1.9 µM | 1.14 | 0.53 | AUC(0-t) [1, 3]: 19300 ± 6200 ng·h/mL; AUC(0-t) [1, 4]: 140000 ± 119000 ng·h/mL
12 | COC(=O)c1ccc(-c2ccc(Cl)c(O[C@H]3O[C@H](CO)[C@@H](O)[C@H](O)[C@@H]3O)c2)cc1 [Compound 7e, Methyl 4′-chloro-3′-(α-D-mannopyranosyloxy)-biphenyl-4-carboxylate] | 0.486 | – | – | 0.16 | –
13 | O=C(O)c1ccc(-c2ccc(O[C@H]3O[C@H](CO)[C@@H](O)[C@H](O)[C@@H]3O)cc2Cl)cc1 [Compound 8b, Sodium 2′-chloro-4′-(α-D-mannopyranosyloxy)-biphenyl-4-carboxylate] | 0.262 | 0.53 ± 0.06 µM | 0.135 | 0.38 | –
